Laboratory results as given in patent US12600716B2 (Gannex Pharma Co., Ltd., priority 2020, dated 2026).

Tests used:
human FXR protein = target: T1, human FXR protein (Homo sapiens, UniProt Q96RI1); experiment: FXR agonist binding ability: time-resolved fluorescence (LanthaScreen) FXR/coactivator assay; type: biochemical; conditions: GST-labeled human FXR, fluorescein-labeled coactivator, TR-FRET
T1 construct: purchased Invitrogen
Protocol: FXR Agonist Binding Ability Evaluation of the activation effect of the compound of the present invention with regard to the binding of FXR to its co-stimulatory factor SRC-1 was conducted by using time-resolved analytical techniques. Protein: glutathione-S-transferase (GST)-labeled human FXR protein (Invitrogen) • 2. Coactivator: Fluorescein-labeled steroid receptor coactivator (SRC2-2) (Invitrogen) • 3. Detection reagent: LanthaScreen Time-Resolved Fluorescence Analysis Kit (Invitrogen) • 1. The compound was prepared into a 10 mM DMSO stock solution and stored in a −20° C. refrigerator for a long time. • 2. The compound was diluted to 1 mM before the experiment, and then the compound was diluted 3-fold to 10 concentration points using DMSO. Then use buffer G (Invitrogen, PV4553) to dilute these 10 concentration points by 50 times to become a working fluid. Add 10 μl of each working solution to each well of a 384-well plate. • 3. Prepare a human FXR protein solution (final concentration 20 nM) in chilled buffer G and add 5 μl of human FXR protein solution to each well of a 384-well plate. • 4. Prepare a mix of buffer G containing 2 μM fluorescein-labeled steroid receptor coactivator and 20 nM GST antibody. • 5. Add 5 μl of the mixture prepared in Step 4 to a 384-well plate. • 6. Centrifuge the 384-well plate at 1000 g for 1 minute. • 7. Incubate for 1 hour at room temperature in the dark. • 8. Read the 384-well plate at 520 nm and 495 nm on an Envision 2104 plate reader. • 9. Calculate the EC50 value of the activation effect of the compound.

hFXR-LBD-GAL4 = target: T2, hFXR-LBD-GAL4 (Homo sapiens, UniProt Q96RI1); experiment: FXR agonist transactivation ability: luciferase reporter gene in HEK293T; type: cell-based; conditions: read-out: Cell activity
T2 construct: GAL4 (fusion partner); host or cells: HEK293T
T2 sequence (Q96RI1 262-486 limits assumed): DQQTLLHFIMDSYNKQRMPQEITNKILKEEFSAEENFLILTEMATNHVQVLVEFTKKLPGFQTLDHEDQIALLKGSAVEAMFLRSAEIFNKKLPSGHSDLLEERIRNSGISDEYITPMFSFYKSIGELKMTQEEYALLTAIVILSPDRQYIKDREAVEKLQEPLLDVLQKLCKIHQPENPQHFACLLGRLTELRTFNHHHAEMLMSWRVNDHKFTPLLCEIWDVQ
Protocol: FXR Agonist Transactivation Ability
Evaluation of the ability of the compound of the present invention to promote FXR transactivation was conducted by using luciferase reporter gene expression technology.
• 1. Cell line: HEK293T (Invitrogen) • 2. Expression plasmid: pBIND-hFXR-LBD-GAL4 (Promega), pGL4.35-luciferase (Promega) • 3. Cell culture medium: 10% serum and penicillin/streptomycin double antibody in DMEM medium • 4. Detection reagent: Steady-Glo fluorescence detection system (Promega). • 5. Transfection reagent: TransIT-293 Transfection Reagent (MIRUS BIO)
• 1. The compound was prepared into a 10 mM DMSO stock solution and stored in a −20° C. refrigerator for a long time. • 2. Resuscitation HEK293T cells were seeded in 10 cm culture dishes at a concentration of 5.5×10^6 and incubated for 16 hours at 37° C. in a 5% CO2 incubator. • 3. Return the transfection reagent to room temperature before transfection. The Trans-IT solution was added dropwise to Opti-MEM, and mixed by inversion for 5 minutes; the expression plasmid was added, mixed by inversion, and incubated at room temperature for 20 minutes. • 4. Add the transfection mixture from Step 3 to the prepared 10 cm dish in Step 2 and incubate for 5-6 hours in a 5% CO2 incubator. • 5. Dilute the compound 3 folds to 10 concentration points using DMSO; add 25 nl of compound per well in a 384-well plate using an Echo 550 sonic pipette; add HEK293T cells to the 384-well plate at a concentration of 15,000 cells/well; 37° C. incubate for 16-20 hours in a 5% CO2 incubator. • 6. Add 25 μl of Steady-Glo Fluorescent Reagent to each well and read the fluorescence on an Envision 2104 plate reader. • 7. Calculate the EC50 value of the activation of the compound.

Row | Structure (SMILES) | EC50 (human FXR protein) [nM] | EC50 (hFXR-LBD-GAL4) [nM]
1 | Cc1cc(C(=O)O)cnc1Oc1ccc2cc(OCc3c(-c4c(Cl)cccc4Cl)noc3C3CC3)ccc2c1 [Compound 5, 6-((6-((5-cyclopropyl-3-(2,6-dichlorophenyl)isoxazol-4-yl)methoxy)naphthalen-2-yl)oxy)-5-methylnicotinic acid] | > 500 | > 1000
2 | O=C(O)c1ccc(Oc2ccc3cc(OCc4c(-c5c(Cl)cccc5Cl)noc4C4CC4)ccc3c2)nc1Cl [Compound 8, 2-chloro-6-((6-((5-cyclopropyl-3-(2,6-dichlorophenyl)isoxazol-4-yl)methoxy)naphthalen-2-yl)oxy)nicotinic acid] | 50 to 500 | 500 to 1000
3 | O=C(O)c1ccc(Oc2ccc3cc(OCc4c(-c5c(Cl)cccc5Cl)noc4C4CC4)ccc3c2)cn1 [Compound 9, 5-((6-((5-cyclopropyl-3-(2,6-dichlorophenyl)isoxazol-4-yl)methoxy)naphthalen-2-yl)oxy)picolinic acid] | 50 to 500 | > 1000
4 | O=C(O)c1ccnc(Oc2ccc3cc(OCc4c(-c5c(Cl)cccc5Cl)noc4C4CC4)ccc3c2)c1 [Compound 12, 2-((6-((5-cyclopropyl-3-(2,6-dichlorophenyl)isoxazol-4-yl)methoxy)naphthalen-2-yl)oxy)isonicotinic acid] | < 50 | > 1000
5 | O=C(O)c1ncccc1Oc1ccc2cc(OCc3c(-c4c(Cl)cccc4Cl)noc3C3CC3)ccc2c1 [Compound 13, 3-((6-((5-cyclopropyl-3-(2,6-dichlorophenyl)isoxazol-4-yl)methoxy)naphthalen-2-yl)oxy)picolinic acid] | 50 to 500 | > 1000
6 | O=C(O)c1cccnc1Oc1ccc2cc(OCc3c(-c4c(Cl)cccc4Cl)noc3C3CC3)ccc2c1 [Compound 15, 2-((6-((5-cyclopropyl-3-(2,6-dichlorophenyl)isoxazol-4-yl)methoxy)naphthalen-2-yl)oxy)nicotinic acid] | 50 to 500 | > 1000
7 | O=C(O)c1ccc(Oc2ccc3cc(OCc4c(-c5c(Cl)cc(F)cc5Cl)noc4C4CC4)ccc3c2)nc1 [Compound 18] | 50 to 500 | > 1000
8 | O=C(O)c1ccc(Oc2ccc3cc(OCc4c(-c5c(Cl)cccc5Cl)noc4C4CC4)ccc3c2F)nc1 [Compound 20, 6-((6-((5-cyclopropyl-3-(2,6-dichlorophenyl)isoxazol-4-yl)methoxy)-1-fluoronaphthalen-2-yl)oxy)nicotinic acid] | 50 to 500 | 500 to 1000
9 | O=C(O)c1cccc(Oc2cccc3cc(OCc4c(-c5c(Cl)cccc5Cl)noc4C4CC4)ccc23)n1 [Compound 23, 6-((6-((5-cyclopropyl-3-(2,6-dichlorophenyl)isoxazol-4-yl)methoxy)naphthalen-1-yl)oxy)picolinic acid] | > 500 | > 1000
10 | O=C(O)c1ccc(Oc2ccc3cc(OCc4c(-c5c(Cl)cccc5Cl)noc4C4CC4)ccc3c2)nc1 [Compound 33] | 50 to 500 | < 200
11 | O=C(O)c1cccnc1Oc1cccc2cc(OCc3c(-c4c(Cl)cccc4Cl)noc3C3CC3)ccc12 [Compound 35, 2-((6((5-cyclopropyl-3-(2,6-dichlorophenyl)isoxazol-4-yl)methoxy)naphthalen-1-yl)oxy)nicotinic acid] | < 50 | < 200

Next, values leading:

Row | EC50 (human FXR protein) [nM] | EC50 (hFXR-LBD-GAL4) [nM] | Structure (SMILES)
12 | 50 to 500 | > 1000 | O=C(O)c1ccc(Oc2ccc3cc(OCc4c(-c5c(Cl)cccc5Cl)noc4C4CC4)ccc3c2)nn1 [Compound 2, 6-((6-((5-cyclopropyl-3-(2,6-dichlorophenyl)isoxazol-4-yl)methoxy)naphthalen-2-yl)oxy)pyridazine-3-carboxylic acid]
13 | > 500 | > 1000 | O=C(O)c1cnc(Oc2ccc3cc(OCc4c(-c5c(Cl)cccc5Cl)noc4C4CC4)ccc3c2)c(Cl)c1 [Compound 3, 5-chloro-6-((6-((5-cyclopropyl-3-(2,6-dichlorophenyl)isoxazol-4-yl)methoxy)naphthalen-2-yl)oxy)nicotinic acid]
14 | 50 to 500 | > 1000 | O=C(O)c1cnc(Oc2ccc3cc(OCc4c(-c5c(Cl)cccc5Cl)noc4C4CC4)ccc3c2)s1 [Compound 4, 2-((6-((5-cyclopropyl-3-(2,6-dichlorophenyl)isoxazol-4-yl)methoxy)naphthalen-2-yl)oxy)thiazole-5-carboxylic acid]
15 | 50 to 500 | > 1000 | O=C(NS(=O)(=O)C1CC1)c1ccc(Oc2ccc3cc(OCc4c(-c5c(Cl)cccc5Cl)noc4C4CC4)ccc3c2)nc1 [Compound 6, 6((6((5-cyclopropyl-3-(2,6-dichlorophenyl)isoxazol-4-yl)methoxy)naphthalen-2-yl)oxy)-N-(cyclopropylsulfonyl)nicotinamide]
16 | > 500 | > 1000 | O=C(O)c1cnc(Oc2ccc3cc(OCc4c(-c5c(Cl)cccc5Cl)noc4C4CC4)ccc3c2)cn1 [Compound 7, 5-((6-((5-cyclopropyl-3-(2,6-dichlorophenyl)isoxazol-4-yl)methoxy)naphthalen-2-yl)oxy)pyrazine-2-carboxylic acid]
17 | 50 to 500 | > 1000 | O=C(O)c1ccccc1Oc1ccc2cc(OCc3c(-c4c(Cl)cccc4Cl)noc3C3CC3)ccc2c1 [Compound 14, 2-((6-((5-cyclopropyl-3-(2,6-dichlorophenyl)isoxazol-4-yl)methoxy)naphthalen-2-yl)oxy)benzoic acid]
18 | < 50 | > 1000 | O=C(O)c1ccncc1Oc1ccc2cc(OCc3c(-c4c(Cl)cccc4Cl)noc3C3CC3)ccc2c1 [Compound 16, 3-((6-((5-cyclopropyl-3-(2,6-dichlorophenyl)isoxazol-4-yl)methoxy)naphthalen-2-yl)oxy)isonicotinic acid]
19 | > 500 | > 1000 | O=C(O)c1ccc(Oc2ccc3cc(OCc4c(-c5ccccc5OC(F)(F)F)noc4C4CC4)ccc3c2)nc1 [Compound 17]
20 | > 500 | > 1000 | COc1cc(Cl)c(-c2noc(C3CC3)c2COc2ccc3cc(Oc4ccc(C(=O)O)cn4)ccc3c2)c(Cl)c1 [Compound 19, 6-((6-((5-cyclopropyl-3-(2,6-dichloro-4-methoxyphenyl)isoxazol-4-yl)methoxy)naphthalen-2-yl)oxy)nicotinic acid]
21 | 50 to 500 | > 1000 | O=C(O)c1ncccc1Oc1cccc2cc(OCc3c(-c4c(Cl)cccc4Cl)noc3C3CC3)ccc12 [Compound 25, 3-((6-((5-cyclopropyl-3-(2,6-dichlorophenyl)isoxazol-4-yl)methoxy)naphthalen-1-yl)oxy)picolinic acid]
22 | 50 to 500 | 500 to 1000 | O=C(O)c1ccc(Oc2ccc3c(Cl)c(OCc4c(-c5c(Cl)cccc5Cl)noc4C4CC4)ccc3c2)nc1 [Compound 29, 6-((5-chloro-6-((5-cyclopropyl-3-(2,6-dichlorophenyl)-isoxazol-4-yl)methoxy)naphthalen-2-yl)oxy)nicotinic acid]
23 | < 50 | < 200 | O=C(O)c1ccc(Oc2c(F)ccc3cc(OCc4c(-c5c(Cl)cccc5Cl)noc4C4CC4)ccc23)nc1 [Compound 30, 6-((6-((5-cyclopropyl-3-(2,6-dichlorophenyl)isoxazol-4-yl)methoxy)-2-fluoronaphthalen-1-yl)oxy)nicotinic acid]
24 | 50 to 500 | > 1000 | O=C(O)c1ccc(Oc2ccc3c(OCc4c(-c5c(Cl)cccc5Cl)noc4C4CC4)cccc3c2)nc1 [Compound 36, 6-((5-((5-cyclopropyl-3-(2,6-dichlorophenyl)isoxazol-4-yl)methoxy)naphthalen-2-yl)oxy)nicotinic acid]
